{"source": "patent US10561658B2", "about": "“Thieno- and pyrrolopyrimidine analogues as anticancer agents and methods of use thereof” (UNIVERSITY OF MARYLAND, BALTIMORE COUNTY, priority 2015, dated 2020)", "key": {"[1]": {"system": "Staphylococcus aureus subsp. aureus (MRSA) ATCC 43300", "experiment": "Antimicrobial growth inhibition, S. aureus (MRSA)", "type": "cell-based", "details": "Staphylococcus aureus (MRSA) ATCC 43300, 100 μM", "protocol": "(§1) Evaluation of antimicrobial activity in vitro. Compounds were tested against the following panel of bacteria and fungi purchased from the American Type Culture Collection (ATCC). Briefly, bacteria were grown to mid-log phase, diluted with fresh medium to an optical density at 600 nm (OD600) of 0.030-0.060 and then diluted again 1:10. This suspension (195 μL) was added to wells in a 96 well microtiter plate (Sarstedt) and 5 μL of compound dissolved in DMSO was added to give a final concentration of 100-0.1 μM at 2.5% DMSO by volume. A DMSO negative control and standard antibiotic positive controls were included in each plate. All compounds were tested in triplicate for each concentration. Plates were sealed with parafilm, placed in a Ziploc bag to prevent evaporation, and incubated at 30° C. (fungi) or 37° C. (bacteria) for 16-20 hours (48 hours for C. neoformans). The OD600 values for each well were determined with a plate reader (Biotek, EL800) and the data were standardized to the DMSO control wells after subtracting the background from blank medium. Initial single concentrations were tested at 100 μM and active compounds were further tested with at least nine concentrations for a full dose response. Dose response curves were generated using GraphPad Prism 5 software and used to determine the MIC95 concentrations (minimal concentration that inhibits 95% of growth). Compounds 1, 2, 5 and 19 were screened for growth inhibition activity against a panel of bacteria and fungi at a concentration of 100 as shown in Table 2. Compound 5 was included to test the importance of the C4-Cl substituent for activity across a broader range of biological systems."}, "[2]": {"system": "Candida albicans ATCC 10231", "experiment": "Antifungal growth inhibition and MIC95, C. albicans", "type": "cell-based", "details": "ATCC10231; for inhibition at 100 µM: Candida albicans ATCC 10231, 100 μM; for MIC: Candida albicans, C. albicans ATCC 10231, minimum concentration for inhibition by 95%", "protocol": "as §1\nCompounds 1 and 2 were further tested against the susceptible fungal strains to determine the MIC95 values."}, "L1210 leukemia cell line": {"system": "L1210 leukemia cell line", "experiment": "Apoptosis analysis (annexin V staining), L1210", "type": "cell-based, mouse", "details": "for cells undergoing apoptosis (annexin V): L1210, 1 μM, 48 h", "protocol": "FIGS. 5 A and B contains apoptosis analysis (annexin V staining) in the L1210 leukemia cell line relating to compounds 1 (ii), 2 (iii) and 19 (iv) relative to a control (i). After incubation with 1 μM compound (1) for 48 h, 60% of the cells were observed undergoing apoptotic cell death, with the vast majority of these in early apoptosis (FIG. 5A (ii)).\nMany antineoplastic compounds arrest cell proliferation by activating specific checkpoints that block progression through the cell cycle. To test whether compounds 1 or 2 inhibited cell proliferation by this mechanism, their effects on L1210 cell cycle distributions were monitored using propidium iodide staining and flow cytometry (FIG. 7). Cell cycle and apoptosis studies were conducted on L1210, a mouse lymphocytic leukemia cell line obtained from the American Type Culture Collection and grown in Dulbecco's Modified Eagle's Medium (DMEM) plus 10% fetal bovine serum (FBS). 2×10^6 cells were seeded in 100 mm dishes and treated with vehicle alone or compounds 1 or 2 at the IC50 values determined by cell viability assays or an equivalent volume of DMSO. At 24 and 48 h following treatment the cells were collected, fixed, and stained with propidium iodide (Sigma Aldrich) immediately before analysis by flow cytometry. Vehicle-treated cells were largely confined to G1 and S phases, with very small (<5%) subpopulations in the G2/M phase or showing sub-(<G1) or super-genomic (>G2) DNA content."}, "MDA-MB-231 cells": {"system": "MDA-MB-231 cells", "experiment": "Cell cycle distribution (propidium iodide, flow cytometry), MDA-MB-231", "type": "cell-based, human", "protocol": "Cell cycle distributions of MDA-MB-231 cells after 48 hours in the presence of equitoxic (IC80) doses of (a) compound 1 (15 μM) or (b) compound 2 (8 μM) analyzed by flow cytometry of fixed, propidium iodide-stained cells and compared to vehicle controls (DMSO). A minimum of 3000 cells were analyzed per cell population. Each bar represents the mean±SD across 4 independent cell samples.\nCell-cycle and apoptosis studies were conducted in MDA-MB-231 cells. Cell-cycle analysis of compound 19 at 15 μM concentration lead to arrest of 60% cells in G2/M stage. Similarly, at 1.75 μM concentration, compound 20 arrested 30% of cells in G2/M stage. […] To evaluate the possible mechanism for arrest of cell proliferation, cell-cycle distribution was measured using propidium iodide staining and flow cytometry. […] There are several possibilities that could account for this, including: (i) that cell lysis occurs rapidly following induction of apoptosis, preventing significant accumulation of annexin V-positive bodies, or (ii) that a distinct cell death pathway is triggered by compound 19.\nHuman metastatic breast cancer MDA-MB-231 cells were obtained from the American Type Culture Collection (ATCC) (Rockville, Md.) and maintained in Dulbecco's Modified Eagle's Medium (DMEM) containing 10% fetal bovine serum (FBS) without antibiotics at 37° C. in a humidified, CO2-controlled incubator. The cytotoxicity of compounds 1 and 2 was assessed by reduction of 3-(4, 5-dimethylthiazol-2-yl)-2,5-diphenyltetrazolium bromide (MTT). MDA-MB-231 cells were seeded in 96-well plates at 5×10^3 cells per well and treated with a range of drug concentrations. After 48 hours, cell viability was measured using the MTT Cell Proliferation Assay kit (ATCC) according to the manufacturer's instructions. Percent cell viability was plotted as a function of drug concentrations and analyzed using a sigmoidal dose response function with PRISM v3.03 software (GraphPad) to resolve drug concentrations yielding 50% cell death (IC50). The cell cycle distributions of MDA-MB-231 cells treated with compounds 1 or 2 were analyzed using propidium iodide staining and flow cytometry. 2×10^6 cells were seeded in 100 mm dishes and treated with compounds 1 or 2 at the IC80 values determined by cell viability assays or an equivalent volume of DMSO. 48 h following treatment the cells were collected, fixed, and stained with propidium iodide (Sigma Aldrich) immediately before analysis by flow cytometry.\nAs shown in Example 11, compounds 1 and 2 both induced apoptosis but involving a mechanism independent of cell cycle arrest. To test whether the toxicity of these agents for MDA-MB-231 cells proceeded via a similar pathway, their effects were monitored on cell cycle distributions using propidium iodide staining and flow cytometry. […]"}, "[3]": {"system": "Bacillus subtilis ATCC 6633", "experiment": "Antimicrobial growth inhibition, B. subtilis", "type": "cell-based", "details": "ATCC6633; Bacillus subtilis ATCC 6633, 100 μM", "protocol": "as §1"}, "twenty kinases": {"system": "twenty kinases", "experiment": "Select Screen kinase profiling, twenty kinases", "type": "biochemical", "details": "5 μM", "from_the_text": "The thieno[3,2-d]pyrimidine scaffold has been used extensively in the design of kinase inhibitors."}}}
{"smiles": "Clc1nc(Cl)c2[nH]ccc2n1", "note": "[Compound 19, 2,4-Dichloropyrrolo[3,2-d]pyrimidine]", "values": [{"measurement": "inhibition at 100 µM", "setting": "[1]", "value": "< 43", "unit": "%"}, {"measurement": "inhibition at 100 µM", "setting": "[2]", "value": "< 43", "unit": "%"}, {"measurement": "cells undergoing apoptosis (annexin V)", "setting": "L1210 leukemia cell line", "value": 85, "unit": "%"}, {"measurement": "cells arrested in G2/M stage", "setting": "MDA-MB-231 cells; 15 μM", "value": 60, "unit": "%"}, {"measurement": "inhibition at 100 µM", "setting": "[3]", "value": "< 43", "unit": "%"}]}
{"smiles": "Clc1nc(Cl)c2sccc2n1", "note": "[Compound 1, 2,4-Dichlorothieno[3,2-d]pyrimidine]", "values": [{"measurement": "inhibition at 100 µM", "setting": "[1]", "value": "< 43", "unit": "%"}, {"measurement": "inhibition at 100 µM", "setting": "[2]", "value": 99, "unit": "%"}, {"measurement": "MIC", "setting": "[2]", "value": 23.4, "unit": "µM"}, {"measurement": "inhibitory activity against twenty kinases", "setting": "twenty kinases", "value": "did not exhibit any substantial inhibitory activity"}, {"measurement": "cells undergoing apoptosis (annexin V)", "setting": "L1210 leukemia cell line", "value": 60, "unit": "%"}, {"measurement": "cells accumulated in G2/M phase", "setting": "MDA-MB-231 cells; MDA-MB-231, IC80 dose, 48 h", "value": "> 70", "unit": "%"}, {"measurement": "inhibition at 100 µM", "setting": "[3]", "value": 43, "unit": "%"}]}
{"smiles": "Clc1nc(Cl)c2scc(Br)c2n1", "note": "[Compound 2, 7-Bromo-2,4-dichlorothieno[3,2-d]pyrimidine]", "values": [{"measurement": "inhibition at 100 µM", "setting": "[1]", "value": "< 43", "unit": "%"}, {"measurement": "inhibition at 100 µM", "setting": "[2]", "value": 99, "unit": "%"}, {"measurement": "MIC", "setting": "[2]", "value": 10.7, "unit": "µM"}, {"measurement": "inhibitory activity against twenty kinases", "setting": "twenty kinases", "value": "did not exhibit any substantial inhibitory activity"}, {"measurement": "Annexin V positive cells", "setting": "L1210 leukemia cell line; L1210, 5.4 μM", "value": 55, "unit": "%"}, {"measurement": "cells consistent with late apoptosis", "setting": "L1210 leukemia cell line; L1210, 5.4 μM", "value": 40, "unit": "%"}, {"measurement": "effect on cell cycle distribution", "setting": "MDA-MB-231 cells; MDA-MB-231, IC80 dose, 48 h", "value": "no effect"}, {"measurement": "inhibition at 100 µM", "setting": "[3]", "value": "< 43", "unit": "%"}]}
